According to US20050165030A1, “Pharmaceutical compositions comprising a multifunctional phosphodiesterase inhibitor and an adenosine uptake inhibitor” (priority 2001, published 2005):
Where two headings read alike, the source gives them in different places. Values belong to the compound of their own block, whether it stands above or below them.

Tests used:
[1] = test system: platelets in human whole blood; assay: whole blood platelet aggregation in vitro (collagen); assay type: cell-based; settings: for inhibition of platelet aggregation: alone: cilostazol 0.3-3 μM, dipyridamole 1 or 3 μM, 0.1 or 0.3 μg/ml collagen; for effect on platelet aggregation in whole blood: alone: cilostazol 10 or 30 μM, dipyridamole 0.1, 0.3, 1 or 3 μM, 0.5 μg/ml collagen
Description: The electrodes were then placed in the cuvette and the sample was allowed to incubate at 37° C. while the instrument was calibrated. […] Dipyridamole was diluted in ethanol (EtOH) to a stock concentration of 100 mM. […] The suspension was allowed to incubate for 3 minutes before collagen was added. […] […] Data are expressed as percent of the values detected in the absence of any inhibition.

[2] = test system: PDE3; settings: Liu et al., 2000; read-out: potency for inhibition of PDE3; cited from earlier work
[3] = test system: adenosine uptake; settings: cited from earlier work; for IC50: read-out: IC50 of adenosine uptake inhibition
[4] = test system: adenosine uptake into washed human erythrocytes; assay: [3H]adenosine uptake into washed erythrocytes; assay type: cell-based
Description: Washed erythrocytes (wRBC) were prepared as follows.

[5] = test system: isolated rabbit Langendorff hearts; settings: concentrations below 1 μM, previous studies; cited from earlier work
[6] = test system: whole blood platelet aggregation; assay: ex vivo whole blood platelet aggregation, clinical crossover study; assay type: in vivo, human; settings: alone: cilostazol 100 mg, dipyridamole 200 mg
Description: On study day 4, subjects received one 200 mg tablet of dipyridamole. […] The platelet aggregation was induced by the addition of collagen (final concentration of 0.3 μg/ml, Nycomed Arzneimittel, Munchen, Germany). The percentage aggregation was recorded at each time point. To compare the effect of drug treatments, the aggregation at 2-hour and 4-hour is normalized as a percentage to the values prior to dosing.

[7] = blood concentration after single oral dose; assay type: in vivo, human; settings: 2 and 4 hours after a single dose
[8] = blood concentration during intravenous infusion; assay type: in vivo, rabbit; settings: cilostazol 0.225 mg/kg bolus + 0.0175 mg/kg/min i.v.; dipyridamole 20 μg/kg/min i.v.
Description: Sixty minutes after the surgery, injection of vehicle or the drug combination was initiated. After 20 minutes, the gastrocnemius muscle of the left hindlimb was stimulated throughout the rest of the experiment. Twenty minutes after the stimulation (40 minute time point in FIG. 15), the left femoral artery was clamped for 20 minutes to induce ischemia and then released to allow reperfusion. The regional blood flow was determined by the injection at 0, 20, 40, 60, and 80 minutes of blue-green, yellow-green, orange, red and crimson fluorescent microspheres.

[9] = test system: isolated rabbit Langendorff hearts; assay: cardiac function of isolated rabbit Langendorff hearts
Description: This study was conducted in accordance with the “Guide for the Care And Use of Laboratory Animals”, published by the National Research Council, 1996, Washington D.C., and approved by the Institutional Animal Care and Use Committee of Otsuka Maryland Research Institute, LLC. […] A tracheotomy was performed and the animals were intubated. […] The respiratory rate was adjusted to keep arterial blood PO2, PCO2 and pH in the physiological range. […] Hearts were exposed through a mid-line incision of the chest, and quickly excised by an incision at the base of the heart and put into ice-cold Krebs-Henseleit bicarbonate buffer. The heart was then attached to a Langendorff apparatus by the aortic root, and perfused with non-recirculating Krebs-Henseleit buffer at a constant pressure of 75 mmHg. The perfusate was bubbled with 95% O2 and 5% CO2 gas mixture, and the bubbling rate was adjusted to maintain physiological pH (7.35-7.45). Perfusate temperature was maintained at 38° C. by a circulating waterjacket surrounding the buffer reservoirs. The heart was also maintained at 38° C. via a water-jacketed housing in which it was suspended. The open top of the jacket was covered with a piece of parafilm to maintain the humidity and temperature. The pulmonary artery around the right side of the aortic root was cannulated for collecting coronary effluent and for coronary flow rate measurement with a graduated cylinder. […] The pressure transducer was connected to a Grass Chart Recorder (Model 7) to record left ventricular pressure and its first derivative (dp/dt), and heart rate. Hearts with left ventricular developing pressure less than 85 mmHg at the end of the 15-min equilibrium period were not included in the study. The cardiac function indexes measured were LVDP (left ventricular developed pressure), dp/dtmax (the maximal value of the first derivative of the LVDP), heart rate, and coronary flow. […] Measurements for cardiac function were taken at the end of each 5 min drug treatment. The effect of drug treatment is expressed as the percent change of values before and after each drug treatment: % Change from Baseline=[(Value after drug−Value before drug)/Value before drug]×100 Statistical Analysis

[10] = test system: human washed platelets; assay: collagen-induced aggregation of washed platelets; assay type: cell-based; settings: for IC50: Homo sapiens, Platelet; for inhibitory effect on washed platelet aggregation: alone: dipyridamole 1, 3 or 10 μM, cilostazol 30 or 100 nM, adenosine 1 μM; for inhibition of washed platelet aggregation: single agent + 1 μM adenosine (dipyridamole 1, 3, 10 μM; cilostazol 30 or 100 nM)
Description: Aggregation was quantified by the change in light transmission using an AG-10 Aggregation Analyzer (Kowa, Japan). Washed platelets were maintained at room temperature and the study was performed within 3 hours following blood collection. Cilostazol was dissolved in DMSO and adenosine was dissolved in water. […] Drug or vehicle (DMSO) was then added (0.4 μl) and incubated for another 3 minutes. […] The overall time of aggregation recorded was 15 minutes.

[11] = 2 and 4 hours after a single dose of 200 mg, previous pharmacokinetic data; cited from earlier work
[12] = test system: whole blood; assay: adenosine concentration in plasma of collagen-stimulated whole blood (HPLC); assay type: cell-based, human; settings: dipyridamole 1 μM, 5 minutes after 2 μg/ml collagen, n=3
Description: Blood was drawn and mixed with recombinant human huridin (100 U/ml). The same procedure for platelet aggregation was used to stimulate these platelets with collagen (2 μg/ml). After a 5-minute incubation, 500 μl of WB were mixed quickly with 500 μl of ice-cold saline. The cells were spun at 20,000×g for 4 minutes at 4° C. Supernatant (600 μl) was first mixed with 300 μl PCA (2.5 N) and then neutralized with 300 μl of KHCO3 (2.5 M). Finally, the mixture was centrifuged at 20,000×g for 15 minutes at 4° C. The adenosine concentration in the supernatants was measured using reverse-phase high performance liquid chromatography (HPLC, Waters Alliance 2690) with a Hypersil 3μ C18 column (150 mm×4.6 mm) and a gradient from 5 to 20% methanol in 20 mM KH2PO4. Adenosine was detected using a diode array detector (Water 996) with an absorbance change at 258 nm and quantified by comparison of retention times and peak height with those of a known external standard. Quantification was performed using Waters Millennium 32 Client/Server software.

[13] = test system: adenosine A2A-expressing Chinese hamster ovary (CHO) cells; assay: CRE-luciferase assay (intracellular cAMP) in CHO cells expressing human adenosine A2A receptor; assay type: cell-based; settings: range 0.5 μM to 10 μM
Description: The level of luciferase expression reflects the concentration of intracellular cAMP. […] Therefore, the activation of the receptors would be reflected by luciferase expression, where the expression level can be measured by the luciferase activity assay. Co-transfection of the luciferase reporter vector with the vectors containing adenosine A2A receptors was carried out by calcium phosphate precipitation into Chinese hamster ovary (CHO) cells. Stable transfectants were selected with 1.0 mg/ml G418 (Life Technologies) for 12 days. The cell clones over-expressing functional adenosine A2A receptors were determined by luciferase expression under the stimulation of adenosine.
The next day, the cells were washed once with F12K medium supplemented with 0.5% FCS and then incubated with 100 μl of the medium only (basal) or medium plus test agents for 4 hours at 37° C. After equilibrating to room temperature, 100 μl of detection substrate (Bright-Glo™ luciferase assay system, Promega, Madison, Wis.) were added to each well. The luciferase activity was measured after 5 minutes using a Mediators PhL luminescence plate reader (ImmTech, New Windsor, Md.). The value of luminescence (arbitrary unit) detected during half a second was taken as luciferase activity.

[14] = test system: adenosine uptake into CHO cells over-expressing functional human A2A receptors; assay: [3H]adenosine uptake into CHO cells over-expressing human A2A receptors; assay type: cell-based; settings: compared with platelets and erythrocytes, data not shown
[15] = dipyridamole 0.3, 1 or 3 μM with cilostazol

Compound: O=C1CCc2cc(OCCCCc3nnnn3C3CCCCC3)ccc2N1 [cilostazol, 6-[4-(1-cyclohexyl-1H-tetrazol-5yl)butoxy]-3,4-dihydro-2(1H)-quinolinone]
inhibition of platelet aggregation [1]: did not cause any significant inhibition
effect on platelet aggregation in whole blood [1]: did not have a significant effect
IC50 [2]: 320 nM
IC50 ([3]; various cells (rabbit cardiac myocytes, human vascular smooth muscle, endothelial cells), Liu et al., 2000): 5000 to 10000 nM
IC50 ([4]; Homo sapiens, Erythrocyte, washed erythrocytes, n=3, read-out: IC50 of adenosine uptake inhibition): ~7000 nM
effects on cardiac function [5]: minimal effects
inhibition of ex vivo platelet aggregation [6]: neither cilostazol nor dipyridamole alone inhibited
blood concentration [7]: about 2 μM
blood concentration [8]: about 1 μM
coronary flow ([9]; cilostazol 3 or 10 μM): significantly increased
effect on collagen-induced platelet aggregation ([10]; 1 μM, by itself): little effect
IC50 ([10]; read-out: IC50 of Cilostazol on Platelet Aggregation, +Adenosine (1 μM)): 380 ± 50 nM
IC50 ([10]; read-out: IC50 of Cilostazol on Platelet Aggregation, +Adenosine + Dipyridamole (1 μM)): 170 ± 40 nM
IC50 ([10]; read-out: IC50 of Cilostazol on Platelet Aggregation, +Adenosine + Dipyridamole (3 μM)): 110 nM
IC50 ([10]; read-out: IC50 of Cilostazol on Platelet Aggregation, +Adenosine + Dipyridamole (10 μM)): 10 ± 10 nM
IC50 ([10]; read-out: IC50 of Cilostazol on Platelet Aggregation, cilostazol alone, washed platelets, collagen): 2660 ± 410 nM
inhibitory effect on washed platelet aggregation [10]: no significant inhibitory effect
effect on collagen-induced platelet aggregation ([10]; cilostazol 1 μM combined with adenosine 1 μM): completely inhibited
inhibition of washed platelet aggregation [10]: significant differences from controls

Compound: Nc1nc(NCCc2ccc(O)cc2)nc2nc(-c3ccco3)nn12 [ZM241385]
effect on the synergistic effect of dipyridamole and cilostazol on whole blood aggregation ([1]; ZM241385 0.1 μM, n=8): reverted back to the basal level of cilostazol alone

blood concentration [8]: about 1 μM
effect on cardiac function ([9]; dipyridamole 0.3, 1 or 3 μM alone): no significant effect
cilostazol-induced increase of cardiac contractility [9, 15]: significantly reduced
Compound: OCCN(CCO)c1nc(N2CCCCC2)c2nc(N(CCO)CCO)nc(N3CCCCC3)c2n1 [dipyridamole]
blood concentration [11]: about 2 μM
inhibition of platelet aggregation [1]: did not cause any significant inhibition
effect on platelet aggregation in whole blood [1]: did not have a significant effect
platelet aggregation ([1]; dipyridamole 1 μM, 2 μg/ml collagen): not affected
adenosine levels in whole blood plasma [12]: 5.916 ± 0.641 µM
dipyridamole concentration of peak enhancement of cilostazol effect on luciferase activity [13]: about 5 μM
IC50 [3]: 10 nM
inhibition of ex vivo platelet aggregation [6]: neither cilostazol nor dipyridamole alone inhibited
cilostazol-induced increase of heart rate [9, 15]: significantly reduced
cilostazol-induced increase in coronary flow ([9]; dipyridamole 1 and 3 μM with cilostazol 10 μM): augmented
inhibitory effect on washed platelet aggregation [10]: no significant inhibitory effect
inhibition of washed platelet aggregation [10]: enhanced the effect of dipyridamole significantly

Compound: Cc1[nH]c(=O)c(C#N)cc1-c1ccncc1 [milrinone]
inhibition of [3H]adenosine uptake [14]: no effect
inhibitory effect on adenosine uptake ([3]; at concentrations as high as 100 μM, Liu et al., 2000): no significant inhibitory effect
effect on adenosine uptake ([4]; erythrocytes): virtually no effect

Compound: Nc1ncnc2c1ncn2[C@@H]1O[C@H](CO)[C@@H](O)[C@H]1O [adenosine]
effect on collagen-induced platelet aggregation ([10]; 1 μM, by itself): little effect
inhibitory effect on washed platelet aggregation [10]: no effect
